The values below are quoted from earlier work in US12296348B2, “Electrostatic precipitator” (TECHNISCHE UNIVERSITÄT DORTMUND, priority 2019, dated 2025).

The conditions of the data set: solubility limited in terms of its bioavailability.

As to `COc1ccc2cc([C@H](C)C(=O)O)ccc2c1` [unprocessed naproxen, naproxen], the BCS classification result was “Class II”.
